From ChEMBL document CHEMBL4507263, “Data for DCP probe BAY-474” (2021)

Experiments:
[1] = organism: Mus musculus; test: Inhibition of Interleukin IL-1 at 10 µM in the Eurofins-Panlabs radioligand binding assay (Eurofins_assay_243520); design: ligand concentration 0.1 nM; details: Compound concentration 10.0 uM
[2] = target: Ribosomal protein S6 kinase alpha-3 (Homo sapiens, UniProt P51812); test: Rsk2 (h) Millipore kinase activity assay
[3] = target: Protein kinase C theta type (Homo sapiens) (UniProt Q04759); test: PKCtheta (h) Millipore kinase activity assay; details: Compound concentration 1.0 uM
[4] = target: Discoidin domain-containing receptor 2 (Homo sapiens) (UniProt Q16832); test: DDR2 (h) Millipore kinase activity assay; details: Compound concentration 1.0 uM
[5] = target: Dual specificity mitogen-activated protein kinase kinase 7 (Homo sapiens) (UniProt O14733); test: MKK7beta (h) Millipore kinase activity assay; details: Compound concentration 1.0 uM
Chain of Dual specificity mitogen-activated protein kinase kinase 7 (Homo sapiens) (O14733 whole entry): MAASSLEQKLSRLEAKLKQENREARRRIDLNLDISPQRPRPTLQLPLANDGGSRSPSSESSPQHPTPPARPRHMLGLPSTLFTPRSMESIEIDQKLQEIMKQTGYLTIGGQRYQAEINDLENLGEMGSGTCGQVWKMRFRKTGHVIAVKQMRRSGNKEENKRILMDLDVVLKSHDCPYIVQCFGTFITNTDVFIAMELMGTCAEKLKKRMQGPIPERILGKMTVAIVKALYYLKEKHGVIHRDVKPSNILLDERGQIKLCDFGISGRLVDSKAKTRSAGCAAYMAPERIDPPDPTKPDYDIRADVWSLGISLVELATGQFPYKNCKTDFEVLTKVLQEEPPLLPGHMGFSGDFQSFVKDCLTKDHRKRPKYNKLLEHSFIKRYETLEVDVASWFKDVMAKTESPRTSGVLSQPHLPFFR

[6] = target: G protein-coupled receptor kinase 6 (Homo sapiens) (UniProt P43250); test: GRK6 (h) Millipore kinase activity assay; details: Compound concentration 1.0 uM
[7] = target: Macrophage-stimulating protein receptor (Homo sapiens) (UniProt Q04912); test: Ron (h) Millipore kinase activity assay; details: Compound concentration 1.0 uM
[8] = target: 5-hydroxytryptamine receptor 2B (Homo sapiens) (UniProt P41595); details: Compound concentration 10.0 uM
[9] = target: Tyrosine-protein kinase Lyn (Homo sapiens) (UniProt P07948); test: Lyn (h) Millipore kinase activity assay; details: Compound concentration 1.0 uM
Chain of Tyrosine-protein kinase Lyn (Homo sapiens) (P07948 2-512 limits assumed): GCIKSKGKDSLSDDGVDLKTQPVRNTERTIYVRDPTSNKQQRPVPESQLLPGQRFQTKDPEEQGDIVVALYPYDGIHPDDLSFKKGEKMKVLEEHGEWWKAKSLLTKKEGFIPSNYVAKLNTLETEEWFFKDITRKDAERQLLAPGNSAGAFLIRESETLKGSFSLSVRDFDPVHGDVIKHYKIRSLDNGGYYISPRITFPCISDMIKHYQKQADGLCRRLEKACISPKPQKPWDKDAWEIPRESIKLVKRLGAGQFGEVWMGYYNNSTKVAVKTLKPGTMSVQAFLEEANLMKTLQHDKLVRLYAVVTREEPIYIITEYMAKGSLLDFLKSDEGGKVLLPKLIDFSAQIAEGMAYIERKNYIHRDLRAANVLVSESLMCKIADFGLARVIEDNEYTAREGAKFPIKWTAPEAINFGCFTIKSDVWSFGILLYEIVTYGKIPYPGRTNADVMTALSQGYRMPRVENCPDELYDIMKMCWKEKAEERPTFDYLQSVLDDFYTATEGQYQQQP

[10] = target: Serine/threonine-protein kinase TAO2 (Homo sapiens) (UniProt Q9UL54); test: TAO2 (h) Millipore kinase activity assay; details: Compound concentration 1.0 uM
[11] = target: Proto-oncogene tyrosine-protein kinase Src (Homo sapiens) (UniProt P12931); test: cSRC (h) Millipore kinase activity assay; details: Compound concentration 1.0 uM
[12] = target: Testis-specific serine/threonine-protein kinase 2 (Homo sapiens) (UniProt Q96PF2); test: TSSK2 (h) Millipore kinase activity assay; details: Compound concentration 1.0 uM
[13] = target: Histamine H1 receptor (Homo sapiens) (UniProt P35367); details: Compound concentration 10.0 uM
Chain of Histamine H1 receptor (Homo sapiens) (P35367 whole entry): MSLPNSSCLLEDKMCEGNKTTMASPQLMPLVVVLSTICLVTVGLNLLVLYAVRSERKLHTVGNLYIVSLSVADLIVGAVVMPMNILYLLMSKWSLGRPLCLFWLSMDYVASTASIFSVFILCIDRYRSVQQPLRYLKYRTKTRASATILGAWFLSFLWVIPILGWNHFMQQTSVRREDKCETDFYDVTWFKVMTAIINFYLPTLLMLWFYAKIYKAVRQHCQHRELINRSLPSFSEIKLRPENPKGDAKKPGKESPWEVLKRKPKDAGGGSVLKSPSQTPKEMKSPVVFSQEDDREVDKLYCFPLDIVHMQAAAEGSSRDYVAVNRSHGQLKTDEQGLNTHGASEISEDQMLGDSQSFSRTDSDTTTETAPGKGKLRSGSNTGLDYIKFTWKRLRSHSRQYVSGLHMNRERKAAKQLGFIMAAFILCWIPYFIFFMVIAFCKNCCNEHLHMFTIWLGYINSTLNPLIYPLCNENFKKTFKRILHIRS

[14] = target: Tyrosine-protein kinase JAK3 (Homo sapiens) (UniProt P52333); test: JAK3 (h) Millipore kinase activity assay; details: Compound concentration 1.0 uM
[15] = target: Serine/threonine-protein kinase pim-2 (Homo sapiens) (UniProt Q9P1W9); test: Pim-2 (h) Millipore kinase activity assay; details: Compound concentration 1.0 uM
Chain of Serine/threonine-protein kinase pim-2 (Homo sapiens) (Q9P1W9 whole entry, looked up): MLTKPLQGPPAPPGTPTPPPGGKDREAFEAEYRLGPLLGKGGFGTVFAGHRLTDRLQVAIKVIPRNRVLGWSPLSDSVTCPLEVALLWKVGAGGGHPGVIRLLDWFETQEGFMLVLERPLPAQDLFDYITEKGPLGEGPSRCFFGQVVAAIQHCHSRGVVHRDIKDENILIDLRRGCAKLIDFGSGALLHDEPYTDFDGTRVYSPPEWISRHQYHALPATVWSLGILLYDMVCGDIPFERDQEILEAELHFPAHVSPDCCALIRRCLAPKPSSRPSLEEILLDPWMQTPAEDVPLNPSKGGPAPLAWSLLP

[16] = target: T1, cGMP-dependent protein kinase 1 (Homo sapiens) (UniProt Q13976); details: Compound concentration 1000.0 nM
T1 sequence (whole entry): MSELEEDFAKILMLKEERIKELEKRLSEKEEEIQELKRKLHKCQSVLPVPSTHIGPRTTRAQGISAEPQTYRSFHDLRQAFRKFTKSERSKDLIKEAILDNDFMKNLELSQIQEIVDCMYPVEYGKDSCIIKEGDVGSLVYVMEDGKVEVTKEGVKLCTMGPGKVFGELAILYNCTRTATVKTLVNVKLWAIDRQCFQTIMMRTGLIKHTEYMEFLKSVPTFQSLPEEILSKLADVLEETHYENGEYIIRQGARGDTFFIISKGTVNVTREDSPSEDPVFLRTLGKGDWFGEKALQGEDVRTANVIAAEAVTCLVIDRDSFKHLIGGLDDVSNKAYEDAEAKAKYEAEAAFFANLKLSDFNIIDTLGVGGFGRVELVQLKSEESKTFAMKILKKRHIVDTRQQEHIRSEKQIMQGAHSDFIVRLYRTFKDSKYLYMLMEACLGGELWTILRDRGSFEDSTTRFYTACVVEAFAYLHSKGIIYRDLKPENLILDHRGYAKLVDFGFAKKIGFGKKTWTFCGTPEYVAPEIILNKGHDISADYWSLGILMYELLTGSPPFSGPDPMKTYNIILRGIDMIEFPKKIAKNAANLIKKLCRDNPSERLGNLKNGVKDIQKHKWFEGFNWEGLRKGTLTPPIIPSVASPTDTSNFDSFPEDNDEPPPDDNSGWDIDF

[17] = target: Receptor-type tyrosine-protein kinase FLT3 (Homo sapiens) (UniProt P36888); details: Compound concentration 1000.0 nM
[18] = target: Tyrosine-protein kinase ABL2 (Homo sapiens) (UniProt P42684); details: Compound concentration 1000.0 nM
[19] = system: Phosphatidylinositol 4,5-bisphosphate 3-kinase catalytic subunit alpha isoform (Homo sapiens), P42336 [C420R]; details: Compound concentration 1000.0 nM
[20] = target: Casein kinase I isoform gamma-2 (Homo sapiens) (UniProt P78368); details: Compound concentration 1000.0 nM
[21] = target: RAC-beta serine/threonine-protein kinase (Homo sapiens) (UniProt P31751); details: Compound concentration 1000.0 nM
[22] = target: Cyclin-dependent kinase 2 (Homo sapiens) (UniProt P24941); details: Compound concentration 1000.0 nM
[23] = target: Cyclin-dependent kinase 11B (Homo sapiens) (UniProt P21127); details: Compound concentration 1000.0 nM
[24] = target: Tyrosine-protein kinase Lyn (Homo sapiens) (UniProt P07948); details: Compound concentration 1000.0 nM
[25] = target: Death-associated protein kinase 3 (Homo sapiens) (UniProt O43293); details: Compound concentration 1000.0 nM
[26] = target: Homeodomain-interacting protein kinase 3 (Homo sapiens) (UniProt Q9H422); details: Compound concentration 1000.0 nM
[27] = target: Mitogen-activated protein kinase kinase kinase 1 (Homo sapiens) (UniProt Q13233); details: Compound concentration 1000.0 nM
Chain of Mitogen-activated protein kinase kinase kinase 1 (Homo sapiens) (Q13233 whole entry): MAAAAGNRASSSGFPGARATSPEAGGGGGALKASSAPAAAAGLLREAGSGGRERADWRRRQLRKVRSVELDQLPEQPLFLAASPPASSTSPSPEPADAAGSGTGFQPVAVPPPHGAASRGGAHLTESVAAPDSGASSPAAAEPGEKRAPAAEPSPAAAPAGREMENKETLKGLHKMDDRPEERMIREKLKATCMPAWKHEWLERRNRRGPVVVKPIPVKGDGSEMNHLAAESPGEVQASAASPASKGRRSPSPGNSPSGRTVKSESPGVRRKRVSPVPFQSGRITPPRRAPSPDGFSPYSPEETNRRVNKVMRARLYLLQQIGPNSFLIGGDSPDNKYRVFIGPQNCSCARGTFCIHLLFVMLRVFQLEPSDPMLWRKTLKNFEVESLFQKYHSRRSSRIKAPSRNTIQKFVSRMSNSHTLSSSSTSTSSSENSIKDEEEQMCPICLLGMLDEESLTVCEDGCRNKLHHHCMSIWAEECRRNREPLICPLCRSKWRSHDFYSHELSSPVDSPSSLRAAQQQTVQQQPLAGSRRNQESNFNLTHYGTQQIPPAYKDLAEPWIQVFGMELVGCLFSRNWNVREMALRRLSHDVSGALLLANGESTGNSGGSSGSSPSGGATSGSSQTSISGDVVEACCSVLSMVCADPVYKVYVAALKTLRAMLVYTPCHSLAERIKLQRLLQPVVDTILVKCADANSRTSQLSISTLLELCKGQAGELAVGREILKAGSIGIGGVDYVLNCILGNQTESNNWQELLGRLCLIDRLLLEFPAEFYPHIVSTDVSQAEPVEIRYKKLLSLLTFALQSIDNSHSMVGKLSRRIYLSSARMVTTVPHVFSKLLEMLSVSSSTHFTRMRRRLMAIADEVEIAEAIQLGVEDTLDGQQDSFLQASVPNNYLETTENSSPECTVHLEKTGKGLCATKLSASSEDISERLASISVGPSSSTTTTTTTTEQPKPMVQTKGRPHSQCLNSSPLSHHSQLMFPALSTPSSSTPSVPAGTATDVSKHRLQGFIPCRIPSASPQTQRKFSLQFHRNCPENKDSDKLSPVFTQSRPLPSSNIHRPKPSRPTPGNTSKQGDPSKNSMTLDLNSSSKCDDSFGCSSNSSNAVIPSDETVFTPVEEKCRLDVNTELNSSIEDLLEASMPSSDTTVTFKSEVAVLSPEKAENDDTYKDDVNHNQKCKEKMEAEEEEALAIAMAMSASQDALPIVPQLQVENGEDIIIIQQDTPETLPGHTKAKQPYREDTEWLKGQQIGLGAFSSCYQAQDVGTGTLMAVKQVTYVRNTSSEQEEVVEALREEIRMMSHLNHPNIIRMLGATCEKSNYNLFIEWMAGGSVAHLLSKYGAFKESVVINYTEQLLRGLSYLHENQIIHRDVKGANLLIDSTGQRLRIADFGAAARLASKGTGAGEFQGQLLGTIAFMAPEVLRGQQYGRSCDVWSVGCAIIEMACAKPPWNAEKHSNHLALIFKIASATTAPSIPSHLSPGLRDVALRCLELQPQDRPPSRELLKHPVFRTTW

[28] = system: Tyrosine-protein kinase ABL1 (Homo sapiens), P00519 [T315I]; details: Compound concentration 1000.0 nM
[29] = target: Activated CDC42 kinase 1 (Homo sapiens) (UniProt Q07912); details: Compound concentration 1000.0 nM
[30] = target: Ribosomal protein S6 kinase alpha-1 (Homo sapiens) (UniProt Q15418); details: Compound concentration 1000.0 nM
Chain of Ribosomal protein S6 kinase alpha-1 (Homo sapiens) (Q15418 whole entry): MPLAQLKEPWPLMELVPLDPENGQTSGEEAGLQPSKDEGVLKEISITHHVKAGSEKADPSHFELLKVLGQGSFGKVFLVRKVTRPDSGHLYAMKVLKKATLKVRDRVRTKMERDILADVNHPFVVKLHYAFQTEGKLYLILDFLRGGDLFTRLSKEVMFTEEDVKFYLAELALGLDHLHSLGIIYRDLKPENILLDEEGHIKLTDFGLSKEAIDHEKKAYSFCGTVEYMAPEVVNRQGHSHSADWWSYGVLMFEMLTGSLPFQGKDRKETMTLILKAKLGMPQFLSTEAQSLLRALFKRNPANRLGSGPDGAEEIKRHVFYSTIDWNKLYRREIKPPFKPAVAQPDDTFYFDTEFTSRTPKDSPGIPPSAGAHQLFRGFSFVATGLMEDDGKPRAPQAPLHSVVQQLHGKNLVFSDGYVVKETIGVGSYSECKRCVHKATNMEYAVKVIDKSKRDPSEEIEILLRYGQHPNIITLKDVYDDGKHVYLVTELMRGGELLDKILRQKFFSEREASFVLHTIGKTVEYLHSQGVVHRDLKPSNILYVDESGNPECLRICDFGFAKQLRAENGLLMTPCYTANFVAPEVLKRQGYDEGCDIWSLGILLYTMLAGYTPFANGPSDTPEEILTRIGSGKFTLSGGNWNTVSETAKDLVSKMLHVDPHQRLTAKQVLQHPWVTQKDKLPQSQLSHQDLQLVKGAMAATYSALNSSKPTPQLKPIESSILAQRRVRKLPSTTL

[31] = target: Ephrin type-A receptor 8 (Homo sapiens) (UniProt P29322); details: Compound concentration 1000.0 nM
[32] = target: Calcium-dependent protein kinase 1 (Plasmodium falciparum) (UniProt P62344); details: Compound concentration 1000.0 nM
[33] = system: Tyrosine-protein kinase ABL1 (Homo sapiens), P00519 [Y253F]; details: Compound concentration 1000.0 nM
[34] = target: Ribosomal protein S6 kinase beta-1 (Homo sapiens) (UniProt P23443); details: Compound concentration 1000.0 nM
[35] = system: Phosphatidylinositol 4,5-bisphosphate 3-kinase catalytic subunit alpha isoform (Homo sapiens), P42336 [H1047L]; details: Compound concentration 1000.0 nM
[36] = target: Muscle, skeletal receptor tyrosine-protein kinase (Homo sapiens) (UniProt O15146); details: Compound concentration 1000.0 nM
[37] = target: Ankyrin repeat and protein kinase domain-containing protein 1 (Homo sapiens) (UniProt Q8NFD2); details: Compound concentration 1000.0 nM

Chain of Ribosomal protein S6 kinase alpha-3 (P51812 whole entry): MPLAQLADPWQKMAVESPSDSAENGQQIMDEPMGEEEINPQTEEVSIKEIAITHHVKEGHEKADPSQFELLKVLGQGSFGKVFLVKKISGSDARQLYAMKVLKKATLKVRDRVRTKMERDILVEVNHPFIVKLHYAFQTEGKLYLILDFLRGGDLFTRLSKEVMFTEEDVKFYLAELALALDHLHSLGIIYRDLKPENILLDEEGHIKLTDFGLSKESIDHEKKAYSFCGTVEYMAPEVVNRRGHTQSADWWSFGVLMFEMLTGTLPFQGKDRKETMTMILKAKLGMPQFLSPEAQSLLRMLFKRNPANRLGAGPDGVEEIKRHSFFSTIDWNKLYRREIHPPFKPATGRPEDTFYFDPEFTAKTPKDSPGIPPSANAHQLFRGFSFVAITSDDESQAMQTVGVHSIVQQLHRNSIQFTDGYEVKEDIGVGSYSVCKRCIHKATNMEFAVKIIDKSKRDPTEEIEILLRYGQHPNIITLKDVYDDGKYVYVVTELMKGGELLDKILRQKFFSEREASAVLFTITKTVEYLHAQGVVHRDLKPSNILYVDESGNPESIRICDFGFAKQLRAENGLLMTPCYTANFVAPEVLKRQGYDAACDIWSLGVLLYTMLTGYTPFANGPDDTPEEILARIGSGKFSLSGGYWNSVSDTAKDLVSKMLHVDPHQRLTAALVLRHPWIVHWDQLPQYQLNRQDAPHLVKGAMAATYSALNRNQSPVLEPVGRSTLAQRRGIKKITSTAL

Question: For `CC1=C(C#N)C(c2ccc3[nH]nc(C)c3c2)C(C#N)=C(C)N1` [BAY-474], which inhibition [1] is on record?
Answer: The inhibition was 0%.

Question: What about the IC50 [2] of the same molecule?
Answer: Its IC50 is 900 nM.

Question: And the inhibition ([2]; Compound concentration 1.0 uM)?
Answer: Its inhibition is 46%.

Question: What about the inhibition [3] of the same molecule?
Answer: The inhibition was 15%.

Question: What about the inhibition [4] of the same molecule?
Answer: The inhibition was 12%.

Question: And the inhibition [5]?
Answer: Its inhibition is 13%.

Question: What about the inhibition [6] of the same molecule?
Answer: The inhibition was -2%.

Question: And the inhibition [7]?
Answer: The inhibition was 8%.

Question: What about the inhibition [8] of the same molecule?
Answer: The inhibition was 4%.

Question: What about the inhibition [9] of the same molecule?
Answer: Its inhibition is -1%.

Question: And the inhibition [10]?
Answer: The inhibition was -2%.

Question: What about the inhibition [11] of the same molecule?
Answer: Its inhibition is 8%.

Question: What about the inhibition [12] of the same molecule?
Answer: The inhibition was -3%.

Question: And the inhibition [13]?
Answer: Its inhibition is 1%.

Question: What about the inhibition [14] of the same molecule?
Answer: The inhibition was -7%.

Question: What about the inhibition [15] of the same molecule?
Answer: Its inhibition is -3%.

Question: How did the residual activity [16] turn out when `CC1=C(C#N)[C@@H](c2ccc3[nH]nc(C)c3c2)C(C#N)=C(c2ccc(Cl)cc2)N1` [BAY-827] was run?
Answer: The residual activity was 86.9%.

Question: And the residual activity [17]?
Answer: The residual activity was 100%.

Question: What about the residual activity [18] of the same molecule?
Answer: The residual activity was 100%.

Question: And the residual activity [19]?
Answer: Its residual activity is 100%.

Question: And the residual activity [20]?
Answer: The residual activity was 100%.

Question: What about the residual activity [21] of the same molecule?
Answer: Its residual activity is 100%.

Question: What about the residual activity [22] of the same molecule?
Answer: The residual activity was 100%.

Question: And the residual activity [23]?
Answer: Its residual activity is 91.6%.

Question: And the residual activity [24]?
Answer: The residual activity was 96.8%.

Question: And the residual activity [25]?
Answer: Its residual activity is 100%.

Question: What about the residual activity [26] of the same molecule?
Answer: Its residual activity is 89.5%.

Question: What about the residual activity [27] of the same molecule?
Answer: Its residual activity is 100%.

Question: And the residual activity [28]?
Answer: Its residual activity is 100%.

Question: And the residual activity [29]?
Answer: The residual activity was 100%.

Question: What about the residual activity [30] of the same molecule?
Answer: Its residual activity is 91.2%.

Question: And the residual activity [31]?
Answer: The residual activity was 100%.

Question: And the residual activity [32]?
Answer: Its residual activity is 100%.

Question: What about the residual activity [33] of the same molecule?
Answer: The residual activity was 100%.

Question: And the residual activity [34]?
Answer: The residual activity was 62.2%.

Question: And the residual activity [35]?
Answer: The residual activity was 100%.

Question: And the residual activity [36]?
Answer: The residual activity was 100%.

Question: What about the residual activity [37] of the same molecule?
Answer: The residual activity was 100%.
